In patent publication US20230286973A1, “PROTEIN SECRETION INHIBITORS” (KEZAR LIFE SCIENCES, priority 2020, published 2023):

Columns and labels:
[1] = Liver Microsome Stability Assay (mouse); conditions: mouse liver microsomes, with NADPH, 1.0 uM compound
Procedure: (§1) Stability of a compound was assessed in the presence of liver microsomes from various sources—mouse, rat, monkey and human liver microsomes. 1.0 uM compound, 0.4% DMSO in 0.1 M Potassium Phosphate with 1.0 mg/mL liver microsomes, were incubated at 37° C. with or without 1 mM NADPH. The samples were quenched at 0, and 30 minutes.

[2] = system: multiple myeloma cell line NCI-H929; assay: H929 Cell Viability Assay; assay type: cell-based, human; conditions: Homo sapiens, NCI-H929, 48 h, NCI-H929 cells, Celltiter-Glo
How it was run: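 A 48-hour compound treatment of cells in 10% FBS RPMI medium was followed by luciferase-based viability quantification.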

[3] = system: HER3-ss+4aa/Gaussia Luciferase; assay: Dox-Induced Her3-ss-Gluc Assay; assay type: cell-based; conditions: 24 hr Dox induction; 293FRT/TO cells; read-out: 24 hr Dox Inducible Her3(ss + 4)Gluc 293FRT/TO: Mean IC50
How it was run: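 Doxycycline-inducible HER3 signal sequence+4aa/Gaussia luciferase construct, stably integrated in Flp-In 293 T-REx cells; compound dilutions applied with doxycycline at 37° C., 5% CO2.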

[4] = system: IL-2-FL/Gaussia Luciferase; assay: Dox Induced IL2-FL-Gluc Assay; assay type: cell-based; conditions: for IC50: 24 hr Dox induction, 293FRT/TO cells, read-out: 24 hr Dox Inducible IL2FLGluc 293FRT/TO: Mean IC50; for 24 hr Dox Inducible IL2FLGluc 293FRT/TO: IL2/PD1: ratio of IL2FLGluc IC50 to PD1ssGluc IC50
How it was run: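 A hygromycin- and blasticidin-resistant 293 T-REx clone carrying inducible IL-2–Gaussia luciferase (full-length IL-2, residues 1-153) serves as the cell system. After overnight plating, the cells get test compounds together with doxycycline in DMSO/media and are incubated at 37° C, 5% CO2.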

[5] = Liver Microsome Stability Assay (rat); conditions: rat liver microsomes, with NADPH, 1.0 uM compound
Procedure: as §1

[6] = Liver Microsome Stability Assay (human); conditions: human liver microsomes, with NADPH, 1.0 uM compound
Procedure: as §1

[7] = Liver Microsome Stability Assay (monkey); conditions: monkey liver microsomes, with NADPH, 1.0 uM compound
Procedure: as §1

[8] = system: multiple myeloma cell line U266B1; assay: U266 Cell Viability Assay; assay type: cell-based, human; conditions: Homo sapiens, U-266, 48 h, U266B1 cells, Celltiter-Glo
How it was run: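 After growth in serum-supplemented RPMI 1640, cells received serially diluted compound in DMSO/media and were kept 48 hours before a CellTiter-Glo luminescence readout.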

[9] = system: TNFα-FL/Gaussia Luciferase; assay: Dox Induced TNFα-FL-Gluc Assay; assay type: cell-based; conditions: for IC50: 24 hr Dox induction, 293FRT/TO cells, read-out: 24 hr Dox Inducible TNFaFLGluc 293FRT/TO: Mean IC50; for 24 hr Dox Inducible TNFaFLGluc 293FRT/TO: TNF/PD1: ratio of TNFaFLGluc IC50 to PD1ssGluc IC50
How it was run: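 Hygromycin/blasticidin-selected Flp-In 293 T-REx cells, TNFα-FL/Gaussia luciferase fusion under T-REx control; overnight plating, then compound in DMSO/media with doxycycline at 37 °C, 5% CO2; stereo-undefined structures tested as mixtures.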

[10] = system: PD1-ss+10aa/Gaussia Luciferase; assay: Dox-Induced PD1-ss-Gluc Assay; assay type: cell-based; conditions: 24 hr Dox induction; 293FRT/TO cells; read-out: 24 hr Dox Inducible PD1ssGluc 293FRT/TO: Mean IC50
How it was run: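 Doxycycline-induced expression of a PD1-ss+10aa/Gaussia luciferase reporter is measured in stable Flp-In 293 T-REx cells. Compound dilutions containing doxycycline are added one day after plating and incubated at 37 °C, 5% CO2. Values for unassigned stereocentres refer to stereoisomer mixtures.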

| SMILES | Liver Microsome Stability (Multiple Species): Mouse - % Remaining after 30 min w/NADPH [1] [%] | EC50 [2] [nM] | IC50 [3] [nM] | IC50 [4] [nM] | 24 hr Dox Inducible IL2FLGluc 293FRT/TO: IL2/PD1 [4] | Liver Microsome Stability (Multiple Species): Rat - % Remaining after 30 min w/NADPH [5] [%] | Liver Microsome Stability (Multiple Species): Human - % Remaining after 30 min w/NADPH [6] [%] | Liver Microsome Stability (Multiple Species): Monkey - % Remaining after 30 min w/NADPH [7] [%] | EC50 [8] [nM] | IC50 [9] [nM] | 24 hr Dox Inducible TNFaFLGluc 293FRT/TO: TNF/PD1 [9] | IC50 [10] [nM] |
| --- | --- | --- | --- | --- | --- | --- | --- | --- | --- | --- | --- | --- |
| Cc1cc(C(=O)Nc2nc([C@H]3CCCN3c3ccc(OC4CCN(C(N)=O)CC4)cc3)cs2)n(Cc2ccnc(F)c2)c1 [Compound A166, (R)-4-(4-(2-(2-(1-((2-fluoropyridin-4-yl)methyl)-4-methyl-1H-pyrrole-2-carboxamido)thiazol-4-yl)pyrrolidin-1-yl)phenoxy)piperidine-1-carboxamide] | 63.9 | 2210 | 93.7 | 109 | 2.1 | 78.7 | 64.3 | 72.2 | > 25000 | 744 | 14.1 | 52.8 |
| CC(C)n1cnc(-c2cccc(-c3csc(NC(=O)c4cccn4Cc4ccnc(F)c4)n3)c2)c1 [Compound A167, 1-((2-fluoropyridin-4-yl)methyl)-N-(4-(3-(1-isopropyl-1H-imidazol-4-yl)phenyl)thiazol-2-yl)-1H-pyrrole-2-carboxamide] | 12 | > 25000 | 603 | 1450 | 4 | 13 | 0.06 | 0.15 | > 25000 | > 25000 | >69.1 | 362 |
| O=C(Nc1nc(-c2ccccc2-c2ccccn2)cs1)c1cccn1Cc1ccnc(F)c1 [Compound A168, 1-((2-fluoropyridin-4-yl)methyl)-N-(4-(2-(pyridin-2-yl)phenyl)thiazol-2-yl)-1H-pyrrole-2-carboxamide] | 0.09 | 2710 | 60.5 | 53.7 | 1.5 | 0.52 | 0.45 | 0.02 | > 25000 | 569 | 16.3 | 35 |
| CC(C)n1cnc(-c2ccccc2-c2csc(NC(=O)c3cccn3Cc3ccnc(F)c3)n2)c1 [Compound A169, 1-((2-fluoropyridin-4-yl)methyl)-N-(4-(2-(1-isopropyl-1H-imidazol-4-yl)phenyl)thiazol-2-yl)-1H-pyrrole-2-carboxamide] | 0.08 | 7810 | 1640 | 2170 | 2.2 | 0.02 | 0.17 | 0.11 | 15000 | 6900 | 7.13 | 967 |
| O=C(Nc1nc([C@H]2CCCN2c2ccc(OC3CCSCC3)cc2)cs1)c1cccn1Cc1ccnc(F)c1 [Compound A170, (R)-1-((2-fluoropyridin-4-yl)methyl)-N-(4-(1-(4-((tetrahydro-2H-thiopyran-4-yl)oxy)phenyl)pyrrolidin-2-yl)thiazol-2-yl)-1H-pyrrole-2-carboxamide] | 1.37 | 5710 | 81.1 | 83.4 | 1.2 | 2.02 | 0.58 | 2.6 | > 25000 | 687 | 10.1 | 68.3 |
| O=C(Nc1ccc(N2CCC[C@@H]2c2csc(NC(=O)c3cccn3Cc3ccnc(F)c3)n2)cc1)O[C@@H]1CCOC1 [Compound A171, (R)-tetrahydrofuran-3-yl (4-((R)-2-(2-(1-((2-fluoropyridin-4-yl)methyl)-1H-pyrrole-2-carboxamido)thiazol-4-yl)pyrrolidin-1-yl)phenyl)carbamate] | 17.3 | 159 | 4.33 | 6.54 | 1.8 | 16 | 36.8 | 28.5 | > 25000 | 71.9 | 20.1 | 3.57 |
| COC(=O)Nc1ccc(N2CCC[C@@H]2c2csc(NC(=O)c3cc(C)cn3Cc3ccnc(F)c3)n2)cc1 [Compound A172, methyl (R)-(4-(2-(2-(1-((2-fluoropyridin-4-yl)methyl)-4-methyl-1H-pyrrole-2-carboxamido)thiazol-4-yl)pyrrolidin-1-yl)phenyl)carbamate] | 44.9 | 190 | 5.18 | 5.99 | 2.3 | 19.7 | 65.3 | 43.3 | > 25000 | 50.4 | 19 | 2.66 |
| CN1CC(OC(=O)Nc2ccc(N3CCC[C@@H]3c3csc(NC(=O)c4cccn4Cc4ccnc(F)c4)n3)cc2)C1 [Compound A173, 1-methylazetidin-3-yl (R)-(4-(2-(2-(1-((2-fluoropyridin-4-yl)methyl)-1H-pyrrole-2-carboxamido)thiazol-4-yl)pyrrolidin-1-yl)phenyl)carbamate] | 23.8 | 842 | 26.9 | 40.4 | 2.5 | 17.4 | 70.3 | 54.6 | 8750 | 323 | 20.3 | 15.9 |
| O=C(Nc1ccc(N2CCC[C@@H]2c2csc(NC(=O)c3cccn3Cc3ccnc(F)c3)n2)cc1)O[C@H]1CCOC1 [Compound A174, (S)-tetrahydrofuran-3-yl (4-((R)-2-(2-(1-((2-fluoropyridin-4-yl)methyl)-1H-pyrrole-2-carboxamido)thiazol-4-yl)pyrrolidin-1-yl)phenyl)carbamate] | 29.4 | 77.4 | 6.19 | 8.01 | 3.1 | 42.5 | 38 | 15.4 | > 25000 | 81.1 | 30.9 | 2.62 |
